According to patent US6756359B2, “C12 modified erythromycin macrolides and ketolides having antibacterial activity” (Chiron Corporation, priority 2001, dated 2004):
≈ marks a conversion by molar mass, not a printed value.

Key:
Assay in all cases: Antibacterial activity in vitro, MIC by broth microdilution
E. coli Esco_25922 = assay type: cell-based; conditions: Table 3, Strain ID M: E. coli Esco_25922; unit assumed
How it was run: (§1)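 Broth microdilution per NCCLS in cation-adjusted Mueller-Hinton broth (S. pneumoniae: plus 2-5% lysed horse blood, 5-10% CO2), inoculum 3×10^5–7×10^5 CFU/mL, 2-fold serial drug dilutions, 35° C. for 18-24 hours. MIC taken as lowest concentration preventing visible growth.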

E. faecalis Enfa_29212 = assay type: cell-based; conditions: Table 3, Strain ID C: E. faecalis Enfa_29212
How it was run: as §1

[1] = test system: S. epidermidis Step_14990; assay type: cell-based; conditions: Table 3, Strain ID A: S. epidermidis Step_14990; unit assumed
How it was run: as §1

[2] = test system: S. epidermidis Step_f50654 Pen S; assay type: cell-based; conditions: Table 3, Strain ID B: S. epidermidis Step_f50654 Pen S; unit assumed
How it was run: as §1

S. pyogenes Stpy_8668 = assay type: cell-based; conditions: Table 3, Strain ID D: S. pyogenes Stpy_8668
How it was run: as §1

[3] = test system: S. pneumoniae Stpn_280-962 Pen S; assay type: cell-based, Streptococcus pneumoniae; conditions: Table 3, Strain ID G: S. pneumoniae Stpn_280-962 Pen S
How it was run: as §1

[4] = test system: S. pneumoniae Stpn_297-749 Pen R; assay type: cell-based, Streptococcus pneumoniae; conditions: Table 3, Strain ID F: S. pneumoniae Stpn_297-749 Pen R
How it was run: as §1

S. pneumoniae Stpn_49619 = assay type: cell-based, Streptococcus pneumoniae; conditions: Table 3, Strain ID E: S. pneumoniae Stpn_49619
How it was run: as §1

[5] = test system: S. pneumoniae Stpn_Erm 6849; assay type: cell-based, Streptococcus pneumoniae; conditions: Table 3, Strain ID H: S. pneumoniae Stpn_Erm 6849; unit assumed
How it was run: as §1

[6] = test system: S. pneumoniae Stpn_Erm S 4297; assay type: cell-based, Streptococcus pneumoniae; conditions: Table 3, Strain ID I: S. pneumoniae Stpn_Erm S 4297
How it was run: as §1

[7] = test system: S. pneumoniae Stpn_Mef 5654; assay type: cell-based, Streptococcus pneumoniae; conditions: Table 3, Strain ID J: S. pneumoniae Stpn_Mef 5654; unit assumed
How it was run: as §1

[8] = test system: S. pneumoniae Stpn_Mef S 3427; assay type: cell-based, Streptococcus pneumoniae; conditions: Table 3, Strain ID K: S. pneumoniae Stpn_Mef S 3427
How it was run: as §1

H. influenzae Hain_49247 = assay type: cell-based, Haemophilus influenzae; conditions: Table 3, Strain ID L: H. influenzae Hain_49247; unit assumed
How it was run: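 Visible-growth inhibition defined the MIC, obtained by NCCLS broth microdilution at 35° C. over 18-24 hours with a final inoculum of 3×10^5–7×10^5 CFU/mL.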

| Structure (SMILES) | MIC (E. coli Esco_25922) [µg/mL] | MIC (E. faecalis Enfa_29212) | MIC [1] [µg/mL] | MIC [2] [µg/mL] | MIC (S. pyogenes Stpy_8668) | MIC [3] | MIC [4] | MIC (S. pneumoniae Stpn_49619) | MIC [5] [µg/mL] | MIC ([6]; unit assumed) [µg/mL] | MIC [7] [µg/mL] | MIC [8] | MIC (H. influenzae Hain_49247) [µg/mL] | MIC [6] | MIC (E. faecalis Enfa_29212; unit assumed) [µg/mL] | MIC (S. pyogenes Stpy_8668; unit assumed) [µg/mL] | MIC ([3]; unit assumed) [µg/mL] | MIC ([4]; unit assumed) [µg/mL] | MIC (S. pneumoniae Stpn_49619; unit assumed) [µg/mL] | MIC ([8]; unit assumed) [µg/mL] |
| --- | --- | --- | --- | --- | --- | --- | --- | --- | --- | --- | --- | --- | --- | --- | --- | --- | --- | --- | --- | --- |
| CC[C@H]1OC(=O)[C@H](C)C(=O)[C@H](C)[C@@H](O[C@@H]2O[C@H](C)C[C@H](N(C)C)[C@H]2O)[C@@](C)(OC)C[C@@H](C)C(=O)[C@H](C)[C@@H]2[C@@H]1OC(=O)N2CCCCc1ccc2ccccc2n1 [Compound 5960] | 25 (≈ 32 µM) | ≦0.05 | 0.2 (≈ 0.256 µM) | 0.2 (≈ 0.256 µM) | ≦0.05 | ≦0.05 | ≦0.05 | ≦0.05 | 25 (≈ 32 µM) | 0.1 (≈ 0.128 µM) | 0.2 (≈ 0.256 µM) | ≦0.05 | 3.13 (≈ 4 µM) | – | – | – | – | – | – | – |
| CC[C@H]1OC(=O)[C@H](C)C(=O)[C@H](C)[C@@H](O[C@@H]2O[C@H](C)C[C@H](N(C)C)[C@H]2O)[C@@](C)(OC)C[C@@H](C)C(=O)[C@H](C)[C@@H]2[C@@H]1OC(=O)N2CCCCc1ccnc2ccccc12 [Compound 6220] | 6.25 (≈ 7.99 µM) | ≦0.05 | 0.1 (≈ 0.128 µM) | 0.1 (≈ 0.128 µM) | ≦0.05 | ≦0.05 | ≦0.05 | ≦0.05 | 3.13 (≈ 4 µM) | 0.1 (≈ 0.128 µM) | 0.4 (≈ 0.512 µM) | ≦0.5 | 1.56 (≈ 1.99 µM) | – | – | – | – | – | – | – |
| CC[C@H]1OC(=O)[C@H](C)C(=O)[C@H](C)[C@@H](O[C@@H]2O[C@H](C)C[C@H](N(C)C)[C@H]2O)[C@@](C)(OC)C[C@@H](C)C(=O)[C@H](C)[C@@H]2[C@@H]1OC(=O)N2CCCCn1cnc(-c2ccccc2)c1 [Compound 6221] | 25 (≈ 31.4 µM) | ≦0.05 | 0.1 (≈ 0.125 µM) | 0.1 (≈ 0.125 µM) | ≦0.05 | ≦0.05 | ≦0.05 | ≦0.05 | 0.1 (≈ 0.125 µM) | – | 0.4 (≈ 0.502 µM) | ≦0.05 | 3.13 (≈ 3.93 µM) | ≦0.05 | – | – | – | – | – | – |
| CC[C@H]1OC(=O)[C@H](C)C(=O)[C@H](C)[C@@H](O[C@@H]2O[C@H](C)C[C@H](N(C)C)[C@H]2O)[C@@](C)(OC)C[C@@H](C)C2=NCCN3C(=O)O[C@H]1[C@H]3[C@H]2C [Compound 6222] | 50 (≈ 80.2 µM) | – | 1.56 (≈ 2.5 µM) | 1.56 (≈ 2.5 µM) | – | – | – | – | > 50 | > 50 | 0.78 (≈ 1.25 µM) | – | 25 (≈ 40.1 µM) | – | 0.4 (≈ 0.641 µM) | 0.2 (≈ 0.321 µM) | 0.2 (≈ 0.321 µM) | 0.4 (≈ 0.641 µM) | 0.2 (≈ 0.321 µM) | 0.4 (≈ 0.641 µM) |
| CC[C@H]1OC(=O)[C@H](C)C(=O)[C@H](C)[C@@H](O[C@@H]2O[C@H](C)C[C@H](N(C)C)[C@H]2O)[C@@](C)(OC)C[C@@H](C)C2=N[C@@H](C)CN3C(=O)O[C@H]1[C@H]3[C@H]2C [Compound 6223] | 50 (≈ 78.4 µM) | – | 1.56 (≈ 2.45 µM) | 3.13 (≈ 4.91 µM) | – | – | – | – | > 50 | > 50 | 0.78 (≈ 1.22 µM) | – | > 50 | – | 0.78 (≈ 1.22 µM) | 0.2 (≈ 0.314 µM) | 0.2 (≈ 0.314 µM) | 0.2 (≈ 0.314 µM) | 0.2 (≈ 0.314 µM) | 0.4 (≈ 0.627 µM) |
| CC[C@H]1OC(=O)[C@H](C)C(=O)[C@H](C)[C@@H](O[C@@H]2O[C@H](C)C[C@H](N(C)C)[C@H]2O)[C@@](C)(OC)C[C@@H](C)C(=O)[C@H](C)[C@H]2N(CCCCn3cnc(-c4cccnc4)c3)C(=O)O[C@]12CC [Compound 7280] | 25 (≈ 30.3 µM) | – | 0.2 (≈ 0.242 µM) | 0.2 (≈ 0.242 µM) | ≦0.05 | ≦0.05 | ≦0.05 | ≦0.05 | 0.4 (≈ 0.484 µM) | – | 0.4 (≈ 0.484 µM) | – | 6.25 (≈ 7.57 µM) | ≦0.05 | 0.1 (≈ 0.121 µM) | – | – | – | – | 0.1 (≈ 0.121 µM) |
| CC[C@H]1OC(=O)[C@H](C)C(=O)[C@H](C)[C@@H](O[C@@H]2O[C@H](C)C[C@H](N(C)C)[C@H]2O)[C@@](C)(OC)C[C@@H](C)C(=O)[C@H](C)[C@H]2N(CCCCn3cnc(-c4ccccc4)c3)C(=O)O[C@]12CC [Compound 7281] | 25 (≈ 30.3 µM) | – | 0.2 (≈ 0.242 µM) | 0.1 (≈ 0.121 µM) | ≦0.05 | ≦0.05 | ≦0.05 | ≦0.05 | 0.2 (≈ 0.242 µM) | – | 0.4 (≈ 0.485 µM) | ≦0.05 | 3.13 (≈ 3.79 µM) | ≦0.05 | 0.1 (≈ 0.121 µM) | – | – | – | – | – |
